Experimental data taken from patent US8563542B2 (Cyclacel Limited, priority 2007, dated 2013).
Where two headings read alike, the source gives them in different places.

What was measured:
[1] = target: PLK1 (Homo sapiens, UniProt P53350); assay: PLK1 protein kinase assay (CDC25C phosphorylation, [γ-32P]-ATP); assay type: biochemical; details: read-out: PLK1 IC50
[2] = target: T1, AA (Homo sapiens, UniProt O14965); assay: AA IC50 (Table 1; no method given); assay type: biochemical
T1 sequence (O14965 1-403): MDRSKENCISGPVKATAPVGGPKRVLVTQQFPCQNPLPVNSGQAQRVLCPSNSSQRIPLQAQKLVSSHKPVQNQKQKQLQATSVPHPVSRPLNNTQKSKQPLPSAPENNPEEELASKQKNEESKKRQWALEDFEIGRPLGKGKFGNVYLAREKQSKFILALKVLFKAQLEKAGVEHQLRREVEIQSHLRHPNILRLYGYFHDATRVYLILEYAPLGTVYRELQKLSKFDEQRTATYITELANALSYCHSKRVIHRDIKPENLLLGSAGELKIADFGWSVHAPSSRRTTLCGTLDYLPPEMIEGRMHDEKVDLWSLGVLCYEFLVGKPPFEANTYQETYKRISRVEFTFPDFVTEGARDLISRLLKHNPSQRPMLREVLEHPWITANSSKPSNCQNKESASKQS

[3] = Table 2, PLK1 IC50, class symbols
[4] = Table 2, AurA IC50, class symbols, read-out: AurA IC50

Chain of PLK1 (P53350 whole entry): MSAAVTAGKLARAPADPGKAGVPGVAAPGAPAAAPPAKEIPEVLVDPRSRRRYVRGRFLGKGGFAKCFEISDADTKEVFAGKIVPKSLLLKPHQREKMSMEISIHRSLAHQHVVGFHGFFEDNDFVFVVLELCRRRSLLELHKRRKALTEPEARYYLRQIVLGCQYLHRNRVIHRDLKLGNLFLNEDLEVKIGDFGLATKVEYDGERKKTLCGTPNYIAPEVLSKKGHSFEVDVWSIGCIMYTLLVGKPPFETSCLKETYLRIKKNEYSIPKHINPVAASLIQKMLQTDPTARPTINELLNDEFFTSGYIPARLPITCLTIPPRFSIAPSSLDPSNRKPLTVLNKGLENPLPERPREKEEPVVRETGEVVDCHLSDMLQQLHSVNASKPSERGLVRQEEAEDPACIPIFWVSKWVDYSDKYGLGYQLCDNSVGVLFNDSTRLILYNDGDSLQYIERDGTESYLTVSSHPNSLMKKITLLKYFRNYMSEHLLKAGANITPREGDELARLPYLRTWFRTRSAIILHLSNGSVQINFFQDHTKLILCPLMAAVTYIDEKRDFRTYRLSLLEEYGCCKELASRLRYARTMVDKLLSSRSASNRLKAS

| Compound | IC50 ([1]; Table 1) [µM] | IC50 ([2]; Table 1, read-out: AA IC50) [µM] | IC50 [1, 3] [µM] | IC50 [2, 4] [µM] |
| --- | --- | --- | --- | --- |
| CC1CC(=O)Nc2cnc(Nc3ccc(C(=O)O)cc3)nc2N1C1CCCC1 (stereo not drawn) [compound 7] | < 1 | 1 to 10 | – | – |
| CN1C(=O)CCN(c2ccccc2)c2nc(Nc3ccc(C(=O)O)cc3)ncc21 [compound 15, 4-(5-Methyl-6-oxo-9-phenyl-6,7,8,9-tetrahydro-5H-pyrimido[4,5-b][1,4]diazepin-2-ylamino)-benzoic acid] | < 10 | 0.1 to 1 | – | – |
| CCC1CN(C2CCCC2)c2nc(Nc3ccc(C(=O)O)cc3)ncc2N(C)C1=O (stereo not drawn) [compound 41, 4-(9-Cyclopentyl-7-ethyl-5-methyl-6-oxo-6,7,8,9-tetrahydro-5H-pyrimido[4,5-b][1,4]diazepin-2-ylamino)-benzoic acid] | – | – | < 1 | < 0.1 |
| CN1C(=O)CCN(c2ccccc2F)c2nc(Nc3ccc(C(=O)O)cc3)ncc21 [compound 50, 4-[9-(2-Fluoro-phenyl)-5-methyl-6-oxo-6,7,8,9-tetrahydro-5H-pyrimido[4,5-b][1,4]diazepin-2-ylamino]-benzoic acid] | – | – | < 10 | < 0.1 |
| CN1C(=O)CCN(C2CCCC2)c2nc(Nc3ccc(C(=O)O)cc3)ncc21 [compound 54, 4-(9-Cyclopentyl-5-methyl-6-oxo-6,7,8,9-tetrahydro-5H-pyrimido[4,5-b][1,4]diazepin-2-ylamino)-benzoic acid] | – | – | < 0.1 | < 0.1 |
| CN1CCC(NC(=O)c2cccc(Nc3ncc4c(n3)N(C3CCCC3)CCC(=O)N4C)c2)CC1 [compound 57, 3-(9-Cyclopentyl-5-methyl-6-oxo-6,7,8,9-tetrahydro-5H-pyrimido[4,5-b][1,4]diazepin-2-ylamino)-N-(1-methyl-piperidin-4-yl)-benzamide] | – | – | < 10 | < 1 |
| CN1CCC(NS(=O)(=O)c2ccc(Nc3ncc4c(n3)N(C3CCCC3)CCC(=O)N4C)cc2)CC1 [compound 61, 4-(9-Cyclopentyl-5-methyl-6-oxo-6,7,8,9-tetrahydro-5H-pyrimido[4,5-b][1,4]diazepin-2-ylamino)-N-(1-methyl-piperidin-4-yl)-benzenesulfonamide] | – | – | < 10 | < 1 |
| CN1C(=O)CCN(C2CCCC2)c2nc(Nc3ccc(S(N)(=O)=O)cc3)ncc21 [compound 63, 4-(9-Cyclopentyl-5-methyl-6-oxo-6,7,8,9-tetrahydro-5H-pyrimido[4,5-b][1,4]diazepin-2-ylamino)-benzenesulfonamide] | – | – | < 10 | < 0.1 |
| CN1C(=O)CCN(c2ccc(N3CCOCC3)cc2)c2nc(Nc3ccc4c(c3)CS(=O)(=O)C4)ncc21 [compound 336, 2-(2,2-Dioxo-2,3-dihydro-1H-2lambda*6*- benzo[c]thiophen-5-ylamino)-5-methyl-9-(4-morpholin-4-yl-phenyl)-5,7,8,9-tetrahydro-pyrimido[4,5-b][1,4]diazepin-6-one] | – | – | – | < 0.1 |
| CCN1C(=O)CCN(c2c(F)cccc2F)c2nc(Nc3ccc4c(c3)CS(=O)(=O)C4)ncc21 [compound 340, 9-(2,6-Difluoro-phenyl)-2-(2,2-dioxo-2,3-dihydro-1H-2lambda*6*-benzo[c]thiophen-5-ylamino)-5-ethyl-5,7,8,9-tetrahydro-pyrimido[4,5-b][1,4]diazepin-6-one] | – | – | – | < 1 |
| Cc1cc(Nc2ncc3c(n2)N(c2ccc(C(C)(C)C)cc2)CCC(=O)N3C)ccc1NC(=O)C1CC1 [compound 342] | – | – | – | < 10 |
| COc1ccc(N2CCC(=O)N(C)c3cnc(Nc4ccc(S(=O)(=O)NC(C)=O)cc4)nc32)cc1 [compound 350, N-Acetyl-4-[9-(4-methoxy-phenyl)-5-methyl-6-oxo-6,7,8,9-tetrahydro-5H-pyrimido[4,5-b][1,4]diazepin-2-ylamino]-benzenesulfonamide] | – | – | – | < 1 |
| CC(=O)NS(=O)(=O)c1ccc(Nc2ncc3c(n2)N(c2c(F)cccc2F)CCC(=O)N3C)cc1 [compound 351, N-Acetyl-4-[9-(2,6-difluoro-phenyl)-5-methyl-6-oxo-6,7,8,9-tetrahydro-5H-pyrimido[4,5-b][1,4]diazepin-2-ylamino]-benzenesulfonamide] | – | – | – | < 0.1 |

More lines, now with the values ahead:

| IC50 ([1]; Table 1) [µM] | IC50 ([2]; Table 1, read-out: AA IC50) [µM] | IC50 [1, 3] [µM] | IC50 [2, 4] [µM] | Compound |
| --- | --- | --- | --- | --- |
| < 1 | 1 to 10 | – | – | COc1cc(C(=O)O)ccc1Nc1ncc2c(n1)N(C1CCCC1)CCC(=O)N2C [compound 1, 4-(9-Cyclopentyl-5-methyl-6-oxo-6,7,8,9-tetrahydro-5H-pyrimido[4,5-b][1,4]diazepin-2-ylamino)-3-methoxy-benzoic acid] |
| < 1 | < 0.1 | – | – | CC1CC(=O)N(C)c2cnc(Nc3ccc(C(=O)O)cc3)nc2N1C1CCCC1 (stereo not drawn) [compound 8, 4-(9-Cyclopentyl-5,8-dimethyl-6-oxo-6,7,8,9-tetrahydro-5H-pyrimido[4,5-b][1,4]diazepin-2-ylamino)-benzoic acid] |
| < 10 | 1 to 10 | – | – | CC1CN(C2CCCC2)c2nc(Nc3ccc(C(=O)NC4CCN(C)CC4)cc3)ncc2NC1=O (stereo not drawn) [compound 18, 4-(9-Cyclopentyl-7-methyl-6-oxo-6,7,8,9-tetrahydro-5H-pyrimido[4,5-b][1,4]diazepin-2-ylamino)-N-(1-methyl-piperidin-4-yl)-benzamide] |
| < 1 | 0.1 to 1 | – | – | CC1CC(=O)N(C)c2cnc(Nc3ccc(C(=O)NC4CCN(C)CC4)cc3)nc2N1C1CCCC1 (stereo not drawn) [compound 37, 4-(9-Cyclopentyl-5,8-dimethyl-6-oxo-6,7,8,9-tetrahydro-5H-pyrimido[4,5-b][1,4]diazepin-2-ylamino)-N-(1-methyl-piperidin-4-yl)-benzamide] |
| – | – | < 10 | < 1 | COc1cc(C(=O)NC2CCN(C)CC2)ccc1Nc1ncc2c(n1)N(C(C)(C)C)CCC(=O)N2C [compound 42, 4-(9-tert-Butyl-5-methyl-6-oxo-6,7,8,9-tetrahydro-5H-pyrimido[4,5-b][1,4]diazepin-2-ylamino)-3-methoxy-N-(1-methyl-piperidin-4-yl)-benzamide] |
| – | – | < 10 | < 0.1 | CN1C(=O)CCN(C2CCCC2)c2nc(Nc3ccc4c(c3)CS(=O)(=O)C4)ncc21 [compound 46, 9-Cyclopentyl-2-(2,2-dioxo-2,3-dihydro-1H-2lambda*6*-benzo[c]thiophen-5-ylamino)-5-methyl-5,7,8,9-tetrahydro-pyrimido[4,5-b][1,4]diazepin-6-one] |
| – | – | < 10 | < 0.1 | CN1C(=O)CCN(C2CCCC2)c2nc(Nc3ccc(S(=O)(=O)N4CCOCC4)cc3)ncc21 [compound 47, 9-Cyclopentyl-5-methyl-2-[4-(morpholine-4-sulfonyl)-phenylamino]-5,7,8,9-tetrahydro-pyrimido[4,5-b][1,4]diazepin-6-one] |
| – | – | < 10 | < 10 | COc1cccc(N2CCC(=O)N(C)c3cnc(Nc4ccc(C(=O)O)cc4)nc32)c1 [compound 49, 4-[9-(3-Methoxy-phenyl)-5-methyl-6-oxo-6,7,8,9-tetrahydro-5H-pyrimido[4,5-b][1,4]diazepin-2-ylamino]-benzoic acid] |
| – | – | < 1 | < 1 | CN1C(=O)CCN(C2CCCC2)c2nc(Nc3ccc(N4CCOCC4)cc3)ncc21 [compound 51, 9-Cyclopentyl-5-methyl-2-(4-morpholin-4-yl-phenylamino)-5,7,8,9-tetrahydro-pyrimido[4,5-b][1,4]diazepin-6-one] |
| – | – | < 1 | < 1 | CN1C(=O)CCN(C2CCCC2)c2nc(Nc3cccc(S(N)(=O)=O)c3)ncc21 [compound 53, 3-(9-Cyclopentyl-5-methyl-6-oxo-6,7,8,9-tetrahydro-5H-pyrimido[4,5-b][1,4]diazepin-2-ylamino)-benzenesulfonamide] |
| – | – | < 10 | < 0.1 | CN1C(=O)CCN(C2CCCC2)c2nc(Nc3ccc(S(C)(=O)=O)cc3)ncc21 [compound 55, 9-Cyclopentyl-2-(4-methanesulfonyl-phenylamino)-5-methyl-5,7,8,9-tetrahydro-pyrimido[4,5-b][1,4]diazepin-6-one] |
| – | – | < 1 | < 1 | CN1C(=O)CCN(C2CCCC2)c2nc(Nc3cccc(C(=O)O)c3)ncc21 [compound 56, 3-(9-Cyclopentyl-5-methyl-6-oxo-6,7,8,9-tetrahydro-5H-pyrimido[4,5-b][1,4]diazepin-2-ylamino)-benzoic acid] |
| – | – | < 1 | < 0.1 | COc1cc(Nc2ncc3c(n2)N(C2CCCC2)CCC(=O)N3C)ccc1C(=O)NC1CCN(C)CC1 [compound 58, 4-(9-Cyclopentyl-5-methyl-6-oxo-6,7,8,9-tetrahydro-5H-pyrimido[4,5-b][1,4]diazepin-2-ylamino)-2-methoxy-N-(1-methyl-piperidin-4-yl)-benzamide] |
| – | – | – | < 0.1 | Cc1cc(Nc2ncc3c(n2)N(c2ccc(N4CCOCC4)cc2)CCC(=O)N3C)ccc1NC(=O)C1CC1 [compound 337] |
| – | – | – | < 1 | CCN1C(=O)CCN(c2ccc(N3CCOCC3)cc2)c2nc(Nc3ccc4c(c3)CS(=O)(=O)C4)ncc21 [compound 338, 2-(2,2-Dioxo-2,3-dihydro-1H-2lambda*6*- benzo[c]thiophen-5-ylamino)-5-ethyl-9-(4-morpholin-4-yl-phenyl)-5,7,8,9-tetrahydro-pyrimido[4,5-b][1,4]diazepin-6-one] |
| – | – | – | < 0.1 | CN1C(=O)CCN(c2c(F)cccc2F)c2nc(Nc3ccc4c(c3)CS(=O)(=O)C4)ncc21 [compound 339, 9-(2,6-Difluoro-phenyl)-2-(2,2-dioxo-2,3-dihydro-1H-2lambda*6*-benzo[c]thiophen-5-ylamino)-5-methyl-5,7,8,9-tetrahydro-pyrimido[4,5-b][1,4]diazepin-6-one] |
| – | – | – | < 1 | CC(=O)NS(=O)(=O)c1ccc(Nc2ncc3c(n2)N(c2ccc(N4CCOCC4)cc2)CCC(=O)N3C)cc1 [compound 352] |
